Test: xn = mol fraction of the nth substance listed

CC1COC(=O)O1 (stereo unspecified) + CO
Details	viscosity [mPa·s]
298 K, 101.3 kPa, x1 = 0.0206	0.5726
298 K, 101.3 kPa, x1 = 0.0401	0.593
298 K, 101.3 kPa, x1 = 0.0604	0.6164
298 K, 101.3 kPa, x1 = 0.0808	0.6364
298 K, 101.3 kPa, x1 = 0.1018	0.6594
298 K, 101.3 kPa, x1 = 0.2016	0.7765
298 K, 101.3 kPa, x1 = 0.301	0.9078
298 K, 101.3 kPa, x1 = 0.401	1.058
298 K, 101.3 kPa, x1 = 0.5016	1.229
298 K, 101.3 kPa, x1 = 0.6002	1.418
298 K, 101.3 kPa, x1 = 0.7006	1.635
298 K, 101.3 kPa, x1 = 0.8004	1.877
298 K, 101.3 kPa, x1 = 0.9007	2.148
298.15 K, 101.33 kPa, x2 = 0.0512	2.266
298.15 K, 101.33 kPa, x2 = 0.0983	2.097
298.15 K, 101.33 kPa, x2 = 0.1406	1.958
298.15 K, 101.33 kPa, x2 = 0.1883	1.811
298.15 K, 101.33 kPa, x2 = 0.2587	1.616
298.15 K, 101.33 kPa, x2 = 0.343	1.414
298.15 K, 101.33 kPa, x2 = 0.3986	1.298
298.15 K, 101.33 kPa, x2 = 0.4723	1.167
298.15 K, 101.33 kPa, x2 = 0.5124	1.107
298.15 K, 101.33 kPa, x2 = 0.5819	1.001
298.15 K, 101.33 kPa, x2 = 0.6762	0.8678
298.15 K, 101.33 kPa, x2 = 0.758	0.7707
298.15 K, 101.33 kPa, x2 = 0.8297	0.6887
298.15 K, 101.33 kPa, x2 = 0.9256	0.5981
298.15 K, 101.33 kPa, x2 = 0.9495	0.5805
308.15 K, 101.33 kPa, x2 = 0.0512	1.895
308.15 K, 101.33 kPa, x2 = 0.0983	1.757
308.15 K, 101.33 kPa, x2 = 0.1406	1.648
308.15 K, 101.33 kPa, x2 = 0.1883	1.533
308.15 K, 101.33 kPa, x2 = 0.2587	1.377
308.15 K, 101.33 kPa, x2 = 0.343	1.213
308.15 K, 101.33 kPa, x2 = 0.4723	1.002
308.15 K, 101.33 kPa, x2 = 0.5124	0.948
308.15 K, 101.33 kPa, x2 = 0.5819	0.8651
308.15 K, 101.33 kPa, x2 = 0.6762	0.7581
308.15 K, 101.33 kPa, x2 = 0.8297	0.6034
308.15 K, 101.33 kPa, x2 = 0.8931	0.5517
308.15 K, 101.33 kPa, x2 = 0.9256	0.5282
308.15 K, 101.33 kPa, x2 = 0.9495	0.5118
318.15 K, 101.33 kPa, x2 = 0.0512	1.594
318.15 K, 101.33 kPa, x2 = 0.0983	1.48
318.15 K, 101.33 kPa, x2 = 0.1406	1.393
318.15 K, 101.33 kPa, x2 = 0.1883	1.296
318.15 K, 101.33 kPa, x2 = 0.2587	1.169
318.15 K, 101.33 kPa, x2 = 0.343	1.034
318.15 K, 101.33 kPa, x2 = 0.3986	0.9607
318.15 K, 101.33 kPa, x2 = 0.4723	0.8683
318.15 K, 101.33 kPa, x2 = 0.5124	0.8232
318.15 K, 101.33 kPa, x2 = 0.5819	0.7459
318.15 K, 101.33 kPa, x2 = 0.8297	0.5281
318.15 K, 101.33 kPa, x2 = 0.8931	0.4829
318.15 K, 101.33 kPa, x2 = 0.9256	0.4621
318.15 K, 101.33 kPa, x2 = 0.9495	0.4486

Source: the CheMixHub viscosity set
